Assays:
Type in all cases: in vivo
ICR:CD1 male mice [1] = assay: Delayed-type hypersensitivity (DTH), sheep red blood cell challenge, footpad swelling; settings: SRBC challenge into footpad, all three doses (10, 30, 100 mg/kg)
Protocol: In this study, tenilsetam was assessed for its ability to affect the delayed-type hypersensitivity (DTH) reactions. DTH reactions are antigen-specific cell-mediated immune responses that can mediate harmful (e.g., allergic dermatitis and autoimmunity) aspects of immune function. The immune reaction induced by the method described below is characterized by swelling at the site of challenge and by an infiltration of monocytes/macrophages and lymphocytes into the epidermis and dermis. This model for skin DTH reactions has been used widely to monitor cell-mediated immune responses in vivo. […] (dexamethasone), a steroid anti-inflammatory, reduces cell-mediated immune responses and was employed to pharmacologically validate the assay.
Materials and Methods. ICR:CD1 male mice (Harlan) 12 to 13 weeks of age were used for this study. Animals were kept on a 12 hr light dark cycle and fed ad libitum. On day 1 of the study, mice were injected IV with 1×10^6 of washed sheep red blood cells in a volume of 200 μL. Mice were administered tenilsetam on day 6. […]
On day 7, mice were re-administered drug as above. Footpad thickness of both the back right and back left foot pads was measured using a digital micrometer. […]
Data are expressed as the average±SEM. Data were averaged and analyzed by ANOVA followed by a post-hoc Tukey's test with a p value of less then 0.05 indicating a statistical difference. […]

TNFα = assay: Lipopolysaccharide general inflammation / septic shock model, TNFα by ELISA; settings: mice, LPS 0.25 mg/kg ip, blood 90 minutes after LPS; doses of 10 and 30 mg/kg, given 15 minutes prior to LPS; FIG. 3
Excerpt: Lipopolysaccharide General Inflammation. Bolus injection of lethal or sublethal doses of lipopolysaccharide (LPS; the major component of bacterial cell wall) results in the rapid and transient rise in tumor necrosis factor (TNFα) levels in serum in mammals. This animal model was developed to mirror certain aspects of septic shock in humans. This model is also an effective first-line general inflammation model and may be used to determine the anti-inflammatory potential of test compounds.
Materials and methods. Male ICR:CD1 mice (Harlan Sprague Dawley, Indianapolis, Ind.) 9 to 10 weeks of age were housed three per cage, kept on a standard 12 hr light cycle and fed western (high-fat) diet for 5.5 weeks for these studies. Mice were provided food and water ad libitum.
Lipopolysaccharide (heat killed E. coli 0127:B5; SigmaAldrich) was prepared in water at a concentration of 0.025 mg/ml. LPS was dosed at a volume of 10 ml/kg (ip) to produce a final dose of 0.25 mg/kg or 7.5 μg/mouse. […] Plasma was prepared from blood and TNFα levels determined by ELISA as described below.
Serum TNFα levels were determined using the OptEIA™ mouse TNFα ELISA kit (BD Biosciences) as per directions of the manufacturer. Data were averaged and analyzed by ANOVA followed by a post-hoc Tukey's test with a p value of less then 0.05 indicating a statistical difference. […]

ICR:CD1 male mice [2] = assay: Oxazolone contact hypersensitivity (contact dermatitis), ear redness and thickness; settings: all three doses (10, 30, 100 mg/kg)
Protocol: Contact Hypersensitivity (Contact Dermatitis). Contact hypersensitivity (CHS)^3 is a T cell-mediated cutaneous immune/inflammatory reaction to haptens. Oxazolone can be used to evoke a contact hypersensitivity reaction and produce an animal model of contact dermatitis. Tenilsetam was assessed for its ability to affect oxazolone mediated contact dermatitis reaction.
Materials and Methods. ICR:CD1 male mice (Harlan) 12 to 13 weeks of age were used for this study. Animals were kept on a 12 hr light dark cycle and fed ad libitum.
Oxazolone sensitization. Mice were exposed to 50 μL of 3% oxazolone (in 100% ethanol) via topical application to the skin of the abdomen. Additional exposure was via the 4 paws with a small amount of oxazolone.
Oxazolone challenge. On day 5, both ears of mice were exposed to 1% oxazolone (20 μL per ear; 10 μL/side of ear).
Analysis. On day 6, ears were scored for redness on a 0-3 scoring basis and were measured for thickness using a micrometer. These values were recorded, group values were averaged and statistical differences determined by ANOVA followed by a Mann-Whitney U-test (for visual score) or by Tukey's test (for ear thickness). A p value of less than 0.05 was used to indicate statistical significance.
For this study, there were 5 groups: vehicle, and tenilsetam at 3 dose levels: 10, 30 and 100 mg/kg. In addition, there was a dexamethasone group. […]

## O=C1NCCNC1c1cccs1 (racemic) [Tenilsetam, (+/−)-3-(2-thienyl)-2-piperazinone]
ICR:CD1 male mice [1]
  foot swelling by visual examination: significantly decreased
ICR:CD1 male mice [1]; FIG. 1
  foot swelling as measured using a micrometer: significantly decreased
TNFα
  TNFα levels: decreased
ICR:CD1 male mice [2]; day 6, 0-3 redness score, FIG. 2A
  ear swelling after oxazolone challenge, visual scoring: significantly decreased
ICR:CD1 male mice [2]; day 6, micrometer, FIG. 2B
  ear swelling after oxazolone challenge, ear thickness measurements: significantly decreased
